The values below come from PMC6517818, “The yeast mitochondrial pyruvate carrier is a hetero‐dimer in its functional state” (The EMBO Journal, 2019).

T1: Mpc1 (Mpc1/Mpc3 hetero-dimer, mitochondrial pyruvate carrier) (Saccharomyces cerevisiae, UniProt P53157+P53311)
T1 construct: Mpc1/Mpc3 hetero-complex, untagged Mpc1 co-expressed with C-terminally tagged Mpc3, reconstituted in liposomes; with Mpc3 (P53311)
T1 sequence (P53157 1-130): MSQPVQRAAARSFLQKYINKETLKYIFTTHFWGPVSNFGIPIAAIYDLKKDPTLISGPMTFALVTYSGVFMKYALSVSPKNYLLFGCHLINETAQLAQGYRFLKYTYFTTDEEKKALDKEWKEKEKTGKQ
T1 sequence (P53311 21-146): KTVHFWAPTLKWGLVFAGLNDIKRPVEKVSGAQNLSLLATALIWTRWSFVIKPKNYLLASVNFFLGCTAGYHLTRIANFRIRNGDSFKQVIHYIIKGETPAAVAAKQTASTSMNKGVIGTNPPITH

T2: Mpc2 (Mpc1/Mpc2 hetero-complex, MPCFERM) (Saccharomyces cerevisiae, UniProt P38857+P53157)
T2 construct: Mpc1/Mpc2 hetero-complex with C-terminally tagged Mpc2, reconstituted in liposomes; with Mpc1 (P53157)
T2 sequence (P38857 1-129): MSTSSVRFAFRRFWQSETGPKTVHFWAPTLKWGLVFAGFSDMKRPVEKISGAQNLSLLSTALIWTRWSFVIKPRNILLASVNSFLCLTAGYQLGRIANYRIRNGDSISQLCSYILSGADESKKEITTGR
T2 sequence (P53157 1-130): T1 sequence (P53157 1-130)

T3: Mpc3 with a C-terminal Factor Xa cleavage site and octa-histidine tag (S. cerevisiae, UniProt P53311 1-146)
T3 construct: Mpc3, S. cerevisiae, UniProt P53311; codon-optimised synthetic gene; This is the tagged form as captured on the nickel resin; The complex was then released by on-column Factor Xa cleavage; also called Mpc3his; histidine-tagged Mpc3; source: S. cerevisiae mitochondria (SHY15 or W303-1B), co-expressed from pBEVY-GU with untagged Mpc1; LMNG-solubilised mitochondria, captured on nickel …
T3 sequence (looked up): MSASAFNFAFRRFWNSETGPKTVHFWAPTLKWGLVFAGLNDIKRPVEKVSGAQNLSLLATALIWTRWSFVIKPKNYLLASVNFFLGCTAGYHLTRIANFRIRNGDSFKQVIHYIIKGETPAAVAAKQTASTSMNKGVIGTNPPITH

B1: Mpc3 after nickel-affinity purification and Factor Xa cleavage of the histidine tag (natural protein, S. cerevisiae, UniProt P53311 1-146, looked up)
chain: T3 sequence (looked up)
notes: Mpc3, S. cerevisiae, UniProt P53311; codon-optimised synthetic gene; theoretical mass 17.1 kDa; Same construct as m2 after tag removal; The residues IEGR of the Factor Xa site probably remain at the C-terminus after cleavage (surmised); source: S. cerevisiae mitochondria (with Mpc1: W303-1B or SHY15; alone: SHY15), purified (nickel Sepharose, on-column Factor Xa cleavage) in LMNG and tetraoleoyl …
B2: Mpc1 (Mpc1/Mpc3 hetero-dimer, mitochondrial pyruvate carrier) (Saccharomyces cerevisiae S288C) (protein)
chain 1: T1 sequence (P53157 1-130)
chain 2: T1 sequence (P53311 21-146)
notes: Mpc1/Mpc3 hetero-complex, untagged Mpc1 co-expressed with C-terminally tagged Mpc3, reconstituted in liposomes; with Mpc3 (P53311)
B3: Mpc1 (untagged), mitochondrial pyruvate carrier protein 1 from Saccharomyces cerevisiae (natural protein, S. cerevisiae, UniProt P53157 1-130, looked up)
chain: T1 sequence (P53157 1-130)
notes: Mpc1, S. cerevisiae, UniProt P53157; codon-optimised synthetic gene; theoretical mass 15 kDa; also called unmodified Mpc1; source: S. cerevisiae mitochondria (SHY15 or W303-1B), co-expressed from pBEVY-GU with histidine-tagged Mpc3 or Mpc2; co-purified on nickel Sepharose in LMNG and tetraoleoyl cardiolipin

Like-named read-outs stand apart in the source and are kept apart here.

Data set [1] deals with T1, Mpc1 (Mpc1/Mpc3 hetero-dimer, mitochondrial pyruvate carrier). Nature of the data set: […]-pyruvate homo-exchange inhibition in proteoliposomes. In kind it is biochemical.
Data set [2] concerns the target T2, Mpc2 (Mpc1/Mpc2 hetero-complex, MPCFERM). Nature of the data set: time course of pyruvate homo-exchange in proteoliposomes at ΔpH […]. It counts as biochemical.
Data set [3] concerns the molecule itself. Nature of the data set: SEC-MALS; SEC-MALLS, Superdex 200 10/300 GL; 20 mM Tris-HCl pH 7.4, 150 mM NaCl, 0.005% LMNG, 0.005 mg/ml TOCL; nickel-affinity-purified Mpc1/Mpc3 complex or Mpc3 alone injected; protein-conjugate method.
Substrate in the data set “purified protein”: CC(=O)C(=O)O
Nature of the data set: purified protein. In kind it is biochemical, Saccharomyces cerevisiae.

In data set [4] the target is B1. Nature of the data set: SEC-MALS; SEC-MALLS, Superdex 200 10/300 GL; 20 mM Tris-HCl pH 7.4, 150 mM NaCl, 0.005% LMNG, 0.005 mg/ml TOCL; nickel-affinity-purified Mpc1/Mpc3 complex or Mpc3 alone injected; protein-conjugate method. The note with it: both partners purified. (In gel filtration, larger molecules generally elute earlier.)
Data set [5] deals with T3, Mpc3 with a C-terminal Factor Xa …. Nature of the data set: pull-down; nickel-affinity co-purification: untagged Mpc1 co-expressed with His8-tagged partner in yeast mitochondria; solubilised in 1% LMNG, 20 mM Tris-HCl pH 7.4, 150 mM NaCl, 4 °C; bound to nickel Sepharose, washed with 40 mM imidazole, 0.1% LMNG, 0.1 mg/ml TOCL; released by on-column Factor Xa cleavage; SDS-PAGE with Coomassie stain and peptide mass fingerprinting; Mpc1/Mpc3 also purified in Triton X-100, DMNG …. The note with it: partners not purified.

What is called IC50 is the concentration that gives 50% inhibition. For `N#C/C(=C\c1cn(-c2ccccc2)c2ccccc12)C(=O)O` [UK5099], in data set [1] (read-out: IC50), the IC50 is 9 ± 7 µM.

For `CN(Cc1ccccc1)c1ccc2cc(C(=O)O)c(=O)oc2c1` [7ACC2], the IC50 in data set [1] (read-out: IC50) was found to be 27 ± 13 µM.

In turn, `O=C(O)c1nn(Cc2ccc(Cl)cc2Cl)c2ccccc12` [lonidamine] had an IC50 in data set [1] of 118 ± 24 µM.

`CC(=O)C(=O)O` [pyruvate]: the “time course of pyruvate homo-exchange in proteoliposomes at ΔpH 1.6” value in data set [2] was “the Mpc1/Mpc2 hetero‐complex was also active for ΔpH‐dependent pyruvate transport (Fig EV4D)”.

As usually defined, the stoichiometry N is the number of molecules, sites or subunits per partner or assembly. For the molecule B1, in data set [3], the “stoichiometry N” value was found to be 2.

As usually defined, the Km is the substrate concentration at which the rate is half of its maximum. As for B2, in “purified protein”, the Km was found to be 342 ± 58 µM.

For the molecule B3, the “stoichiometry N” value in data set [4] and in data set [5] was 1 Mpc1:Mpc3 each time.
